On to `S=c1[nH]c(-c2ccc(Cl)cc2Cl)nn1CCc1ccccc1` [Example 44, 5-(2,4-Dichlorophenyl)-1,2-dihydro-2-(2-phenylethyl)-3H-1,2,4-triazole-3-thione], for which the melting point lay in the range of 179 to 182 °C.
For `S=c1[nH]c(-c2ccccc2Oc2ccccc2)nn1Cc1ccccc1` [Example 39, 1,2-Dihydro-5-[2-(phenoxy)phenyl]-2-(phenylmethyl)-3H-1,2,4-triazole-3-thione] the value was 158 to 159 °C; for `S=c1[nH]c(-c2ccc(Cl)s2)nn1Cc1ccccc1` [Example 4, 5-(5-Chloro-2-thienyl)-1,2-dihydro-2-(phenylmethyl)-3H-1,2,4-triazole-3-thione], 79 to 80 °C; for `S=c1[nH]c(-c2ccccc2Cl)nn1CCc1ccccc1` [Example 66, 5-(2-Chlorophenyl)-1,2-dihydro-2-(2-phenyl)ethyl-3H-1,2,4-triazole-3-thione], 131 to 133 °C.
As for `S=c1[nH]c(-c2ccc3ccccc3c2Br)nn1Cc1ccccc1` [Example 41, 1,2-Dihydro-5-(1-bromo-2-naphthalenyl)-2-(phenylmethyl)-3H-1,2,4-triazole-3-thione], the figure is 168 to 170 °C.
For `S=c1[nH]c(-c2cccnc2)nn1Cc1cccc(Cl)c1` [Example 56, 2-[(3-Chlorophenyl)methyl]-5-(3-pyridinyl)-1,2-dihydro-3H-1,2,4-triazole-3-thione] the value was 208 to 209 °C; for `COC(=O)c1ccccc1-c1nn(Cc2ccccc2)c(=S)[nH]1` [Example 2, 2-[1,2-Dihydro-1-(phenylmethyl)-5-thioxo-3H-1,2,4-triazol-3-yl]benzoic acid, methyl ester], 129 to 130 °C.
On to `Oc1cccc(Cn2nc(-c3ccccc3)[nH]c2=S)c1` [Example 35, 1,2-Dihydro-2-[(3-hydroxyphenyl)methyl]-5-phenyl-3H-1,2,4-triazole-3-thione], for which the melting point is 233 to 235 °C.
On to `FC(F)(F)c1ccc(-c2nn(Cc3ccccc3)c(=S)[nH]2)cc1` [Example 21, 1,2-Dihydro-2-(phenylmethyl)-5-[4-(trifluoromethyl)phenyl]-3H-1,2,4-triazole-3-thione], for which the melting point lay within 201 to 203 °C.
With `O=C(c1ccccc1)c1cccc(-c2nn(Cc3ccccc3)c(=S)[nH]2)c1` [Example 40, 1,2-Dihydro-5-(3-(phenylcarbonyl)phenyl)-2-(phenylmethyl)-3H-1,2,4-triazole-3-thione], the melting point was in the range of 154 to 155 °C.
As for `S=c1[nH]c(-c2cc(Cl)cc(Cl)c2)nn1Cc1ccccc1` [Example 29, 5-(3,5-Dichlorophenyl)-1,2-dihydro-2-(phenylmethyl)-3H-1,2,4-triazole-3-thione], the figure is 205 to 212 °C; as for `S=c1[nH]c(-c2ccncc2)nn1Cc1ccccc1` [Example 14, 1,2-Dihydro-2-(phenylmethyl)-5-(4-pyridinyl)-3H-1,2,4-triazole-3-thione], 160 to 162 °C; as for `Cc1ccc(C)c(Cn2nc(-c3ccccc3Cl)[nH]c2=S)c1` [Example 60], 166 to 167 °C.
For `FC(F)(F)c1ccc(Cn2nc(-c3ccccc3Cl)[nH]c2=S)cc1` [Example 53, 5-(2-Chlorophenyl)-1,2-dihydro-2-[[4-(trifluoromethyl)phenyl]methyl]-3H-1,2,4-triazole-3-thione] the value was 167 to 168 °C; for `S=c1[nH]c(-c2ccccc2Cl)nn1Cc1ccccc1I` [Example 59, 5-(2-Chlorophenyl)-1,2-dihydro-2-[(2-iodophenyl)methyl]-3H-1,2,4-triazole-3-thione], 189 to 190 °C; for `Fc1cccc(Cn2nc(-c3ccccc3Cl)[nH]c2=S)c1` [Example 58, 5-(2-Chlorophenyl)-1,2-dihydro-2-[(3-fluorophenyl)methyl]-3H-1,2,4-triazole-3-thione], 125 to 126 °C.
As for `Cc1ccc(-c2nn(Cc3ccccc3)c(=S)[nH]2)cc1` [Example 24, 1,2-Dihydro-5-(4-methylphenyl)-2-(phenylmethyl)-3H-1,2,4-triazole-3-thione], the figure is 234 to 235 °C; as for `S=c1[nH]c(-c2cccs2)nn1Cc1ccccc1` [Example 31, 1,2-Dihydro-2-(phenylmethyl)-5-(2-thienyl)-3H-1,2,4-triazole-3-thione], 230 to 231 °C.
Regarding `COc1ccc(Br)c(-c2nn(Cc3ccccc3)c(=S)[nH]2)c1` [Example 12, 5-(2-Bromo-5-methoxyphenyl)-1,2-dihydro-2-(phenylmethyl)-3H-1,2,4-triazole-3-thione], the melting point fell in the range of 154 to 155 °C.
For `FC(F)(F)c1cccc(-c2nn(Cc3ccccc3)c(=S)[nH]2)c1` [Example 10, 1,2-Dihydro-2-(phenylmethyl)-5-[3-(trifluoromethyl)phenyl]-3H-1,2,4-triazole-3-thione] the value was 209 to 210 °C.
As for `S=c1[nH]c(-c2ccc(-c3ccccc3)cc2)nn1Cc1ccccc1` [Example 15, 1,2-Dihydro-2-(phenylmethyl)-5-(4-phenylphenyl)-3H-1,2,4-triazole-3-thione], the figure is 249 to 250 °C.
For `S=c1[nH]c(-c2ccco2)nn1Cc1ccccc1` [Example 11, 5-(2-Furanyl)-1,2-dihydro-2-(phenylmethyl)-3H-1,2,4-triazole-3-thione] the value was 212 to 213 °C; for `COc1ccc(Cn2nc(-c3ccccc3Cl)[nH]c2=S)cc1` [Example 54], 153 to 154 °C; for `O=[N+]([O-])c1ccccc1-c1nn(Cc2ccccc2)c(=S)[nH]1` [Example 6, 1,2-Dihydro-5-(2-nitrophenyl)-2-(phenylmethyl)-3H-1,2,4-triazole-3-thione], 147 to 148 °C.
On to `S=c1[nH]c(-c2cccc(Cl)c2Cl)nn1Cc1ccccc1` [Example 8, 5-(2,3-Dichlorophenyl)-1,2-dihydro-2-(phenylmethyl)-3H-1,2,4-triazole-3-thione], for which the melting point lay in the range of 179 to 180 °C.
For `S=c1[nH]c(-c2ccc(Cl)cc2Cl)nn1Cc1ccccc1` [Example 27, 5-(2,4-Dichlorophenyl)-1,2-dihydro-2-(phenylmethyl)-3H-1,2,4-triazole-3-thione] the value was 169 to 170 °C; for `Fc1ccccc1-c1nn(Cc2ccccc2)c(=S)[nH]1` [Example 17, 5-(2-Fluorophenyl)-1,2-dihydro-2-(phenylmethyl)-3H-1,2,4-triazole-3-thione], 180 to 183 °C.
As for `S=c1[nH]c(-c2ccc(Cl)cc2Cl)nn1Cc1cccc(Oc2ccccc2)c1` [Example 34, 5-(2,4-Dichlorophenyl)-1,2-dihydro-2-[(3-phenoxyphenyl)methyl]-3H-1,2,4-triazole-3-thione], the figure is 180 to 181 °C.
As for `S=c1[nH]c(-c2ccc(Cl)cc2Cl)nn1Cc1cccc(Cl)c1` [Example 32, 2-[(3-Chlorophenyl)methyl]-5-(2,4-dichlorophenyl)-1,2-dihydro-3H-1,2,4-triazole-3-thione], the figure is 190 to 191 °C; as for `S=c1[nH]c(-c2ccc(Cl)cc2Cl)nn1Cc1ccc(Cl)cc1` [Example 45, 2-[(4-Chlorophenyl)methyl]-5-(2,4-dichlorophenyl)-1,2-dihydro-3H-1,2,4-triazole-3-thione], 205 to 206 °C.

The values above are taken from US20020086862A1, “Novel compounds” (AstraZeneca AB, priority 1998, published 2002).
